These results are taken from patent US12391737B2, “Soluble NPY2 receptor agonists” (Boehringer Ingelheim International GmbH, priority 2020, dated 2025).

pKi: −log10 of the molar value.

A short description of one data set: Solubility determination. The following applies: for Sol6: pH 6; for Sol7: pH 7. The method in brief: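 First, TFA-salt peptide was added to 0.1 M sodium diphosphate (pH 6.4 or 7.0) to 10 mg/ml and shaken 2 h at room temperature. Next, insoluble material was filtered off. Finally, filtrate and control, each 1 mg/ml in 50% acetonitrile, were compared by reversed-phase chromatography.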

Data set [1] deals with T1, Human Neuropeptide Y2 Receptor (Homo sapiens, UniProt P49146).
T1 construct: purchased CHEMICON HTS066M
T1 sequence (P49146 1-381): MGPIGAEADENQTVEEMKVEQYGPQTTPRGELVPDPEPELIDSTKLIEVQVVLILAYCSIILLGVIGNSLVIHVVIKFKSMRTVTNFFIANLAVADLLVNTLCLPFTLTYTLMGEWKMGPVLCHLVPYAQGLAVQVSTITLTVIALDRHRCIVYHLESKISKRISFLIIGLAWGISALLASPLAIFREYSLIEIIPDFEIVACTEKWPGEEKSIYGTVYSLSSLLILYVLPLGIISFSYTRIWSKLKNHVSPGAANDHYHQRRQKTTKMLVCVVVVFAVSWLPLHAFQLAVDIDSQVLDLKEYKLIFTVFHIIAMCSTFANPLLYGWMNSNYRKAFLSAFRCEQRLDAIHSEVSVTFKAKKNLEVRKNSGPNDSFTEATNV
Description: Radioligand binding competition assay (RLB). The following applies: Table 3, 125I-PYY(1-36) competition; read-out: Ki. The procedure, abridged: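 Displacement of radioligand is measured after 2 h at room temperature with receptor membranes in Mg2+/Ca2+ HEPES buffer, pH 7.4. Filter-bound radioactivity is counted and IC50 obtained from curve fitting.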

As for `CC(C)CC(=O)N[C@@H](C)C(=O)N1CCC[C@H]1C(=O)N[C@@H](CCC(=O)O)C(=O)N[C@@H](CCCCNC(=O)CCCCCNC(=O)CC[C@H](NC(=O)CCCCCCCCCCCCCCCCC(=O)O)C(=O)O)C(=O)N1CCC[C@H]1C(=O)N[C@@H](CCC(=O)O)C(=O)N[C@@H](CCC(=O)O)C(=O)N[C@@H](CCC(N)=O)C(=O)N[C@@H](C)C(=O)N[C@H](C(=O)N1CCC[C@H]1C(=O)N[C@@H](CCC(=O)O)C(=O)N[C@@H](CCC(=O)O)C(=O)N[C@@H](CC(C)C)C(=O)N[C@@H](CCC(N)=O)C(=O)N[C@@H](CCCNC(=N)N)C(=O)N[C@@H](Cc1ccc(O)cc1)C(=O)N[C@@H](Cc1ccc(O)cc1)C(=O)N[C@H](C(=O)N[C@@H](CO)C(=O)N[C@@H](CC(C)C)C(=O)N[C@@H](CCCNC(=N)N)C(=O)N[C@@H](Cc1c[nH]cn1)C(=O)N[C@@H](Cc1ccc(O)cc1)C(=O)N[C@@H](Cc1ccc(O)cc1)C(=O)N[C@@H](CC(N)=O)C(=O)N[C@@H](Cc1c[nH]c2ccccc12)C(=O)N[C@@H](CC(C)C)C(=O)N[C@H](C(=O)N[C@@H](CCCNC(=N)N)C(=O)N[C@@H](CCC(N)=O)C(=O)N[C@@H](CCCNC(=N)N)C(=O)N[C@@H](Cc1ccc(O)cc1)C(N)=O)[C@@H](C)O)C(C)C)[C@@H](C)O` [Compound 9, N{alpha-4}-(3-methylbutanoyl)-N{epsilon-7}-(6-[(4S)-4-carboxy-4-(17-carboxyheptadecanamido)butanamido]hexanoyl)[4A,7K,9E,11Q,13T,18Q,22V,28Y,30W,31L]-hPYY(4-36)], in the data set “Solubility determination”, the “Sol6” value is 9.7 mg/mL and the “Sol7” value came out at 9.9 mg/mL. For the same compound, in data set [1], the negative-log Ki (pKi) (as a rule, the Ki on a negative log10 scale, so that one unit is a factor of ten) is 8.48.

In the case of `CC(C)CC(=O)N[C@@H](C)C(=O)N1CCC[C@H]1C(=O)N[C@@H](C)C(=O)N[C@@H](CCCCNC(=O)CCCCCNC(=O)CC[C@H](NC(=O)CCCCCCCCCCCCCCCCC(=O)O)C(=O)O)C(=O)N1CCC[C@H]1C(=O)N[C@@H](CCC(=O)O)C(=O)N[C@@H](CCC(=O)O)C(=O)N[C@@H](CC(=O)O)C(=O)N[C@@H](C)C(=O)N[C@@H](CO)C(=O)N1CCC[C@H]1C(=O)N[C@@H](CCC(=O)O)C(=O)N[C@@H](CCC(=O)O)C(=O)N[C@@H](CC(C)C)C(=O)N[C@@H](CCC(N)=O)C(=O)N[C@@H](CCCNC(=N)N)C(=O)N[C@@H](Cc1ccc(O)cc1)C(=O)N[C@@H](Cc1ccc(O)cc1)C(=O)N[C@H](C(=O)N[C@@H](CCC(N)=O)C(=O)N[C@@H](CC(C)C)C(=O)N[C@@H](CCCNC(=N)N)C(=O)N[C@@H](Cc1c[nH]cn1)C(=O)N[C@@H](Cc1ccc(O)cc1)C(=O)N[C@@H](Cc1ccc(O)cc1)C(=O)N[C@@H](CC(N)=O)C(=O)N[C@@H](Cc1c[nH]c2ccccc12)C(=O)N[C@@H](CC(C)C)C(=O)N[C@H](C(=O)N[C@@H](CCCNC(=N)N)C(=O)N[C@@H](CCC(N)=O)C(=O)N[C@@H](CCCNC(=N)N)C(=O)N[C@@H](Cc1ccc(O)cc1)C(N)=O)[C@@H](C)O)C(C)C` [Compound 59, N{alpha-4}-(3-methylbutanoyl)-N{epsilon-7}-(6-[(4S)-4-carboxy-4-(17-carboxyheptadecanamido)butanamido]hexanoyl)-[4A,6A,7K,9E,18Q,22V,23Q,28Y,30W,31L]-hPYY(4-36)], in “Solubility determination”, the “Sol6” value worked out at 9.7 mg/mL and the “Sol7” value was 9.6 mg/mL. Also, the pKi in data set [1] is 8.71.

In the case of `CC[C@H](C)[C@H](NC(=O)[C@H](CCC(=O)O)NC(=O)[C@H](CCC(=O)O)NC(=O)[C@@H]1CCCN1C(=O)[C@H](CCC(=O)O)NC(=O)[C@H](C)NC(=O)[C@H](CC(=O)O)NC(=O)[C@H](C)NC(=O)[C@H](CCC(=O)O)NC(=O)[C@@H]1CCCN1C(=O)[C@H](CCCCNC(=O)CCCCCNC(=O)CC[C@H](NC(=O)CCCCCCCCCCCCCCCCC(=O)O)C(=O)O)NC(=O)[C@H](C)NC(=O)[C@@H]1CCCN1C(=O)[C@H](C)NC(=O)CC(C)C)C(=O)N[C@@H](CCC(N)=O)C(=O)N[C@@H](CCCNC(=N)N)C(=O)N[C@@H](Cc1ccc(O)cc1)C(=O)N[C@@H](Cc1ccc(O)cc1)C(=O)N[C@H](C(=O)N[C@@H](C)C(=O)N[C@@H](CC(C)C)C(=O)N[C@@H](CCCNC(=N)N)C(=O)N[C@@H](Cc1c[nH]cn1)C(=O)N[C@@H](Cc1ccc(O)cc1)C(=O)N[C@@H](Cc1ccc(O)cc1)C(=O)N[C@@H](CC(N)=O)C(=O)N[C@@H](Cc1c[nH]c2ccccc12)C(=O)N[C@@H](CC(C)C)C(=O)N[C@H](C(=O)N[C@@H](CCCNC(=N)N)C(=O)N[C@@H](CCC(N)=O)C(=O)N[C@@H](CCCNC(=N)N)C(=O)N[C@@H](Cc1ccc(O)cc1)C(N)=O)[C@@H](C)O)C(C)C` [Compound 181, N{alpha-4}-(3-methylbutanoyl)-N{epsilon-7}-(6-[(4S)-4-carboxy-4-(17-carboxyheptadecanamido)butanamido]hexanoyl)-[4A,6A,7K,9E,10A,13E,17I,18Q,22V,23A,28Y,30W,31L]-hPYY(4-36)], in “Solubility determination”, the “Sol6” value is 9.5 mg/mL and the “Sol7” value came out at 9.3 mg/mL. In addition, the pKi in data set [1] was 8.88.

Consider `CC(C)CC(=O)N[C@@H](C)C(=O)N1CCC[C@H]1C(=O)N[C@@H](CCC(=O)O)C(=O)N[C@@H](CCCCNC(=O)CCCCCNC(=O)CC[C@H](NC(=O)CCCCCCCCCCCCCCCCC(=O)O)C(=O)O)C(=O)N1CCC[C@H]1C(=O)N[C@@H](CCC(=O)O)C(=O)N[C@@H](CCC(=O)O)C(=O)N[C@@H](CC(=O)O)C(=O)N[C@@H](C)C(=O)N[C@H](C(=O)N1CCC[C@H]1C(=O)N[C@@H](CCC(=O)O)C(=O)N[C@@H](CCC(=O)O)C(=O)N[C@@H](CC(C)C)C(=O)N[C@@H](CCC(N)=O)C(=O)N[C@@H](CCCNC(=N)N)C(=O)N[C@@H](Cc1ccc(O)cc1)C(=O)N[C@@H](Cc1ccc(O)cc1)C(=O)N[C@H](C(=O)N[C@@H](CCC(N)=O)C(=O)N[C@@H](CC(C)C)C(=O)N[C@@H](CCCNC(=N)N)C(=O)N[C@@H](Cc1c[nH]cn1)C(=O)N[C@@H](Cc1ccc(O)cc1)C(=O)N[C@@H](Cc1ccc(O)cc1)C(=O)N[C@@H](CC(N)=O)C(=O)N[C@@H](Cc1c[nH]c2ccccc12)C(=O)N[C@@H](CC(C)C)C(=O)N[C@H](C(=O)N[C@@H](CCCNC(=N)N)C(=O)N[C@@H](CCC(N)=O)C(=O)N[C@@H](CCCNC(=N)N)C(=O)N[C@@H](Cc1ccc(O)cc1)C(N)=O)[C@@H](C)O)C(C)C)[C@@H](C)O` [Compound 51, N{alpha-4}-(3-methylbutanoyl)-N{epsilon-7}-(6-[(4S)-4-carboxy-4-(17-carboxyheptadecanamido)butanamido]hexanoyl)-[4A,7K,9E,13T,18Q,22V,23Q,28Y,30W,31L]-hPYY(4-36)], for which, in the data set “Solubility determination”, the “Sol6” value was 9.6 mg/mL and the “Sol7” value was 9.7 mg/mL. In data set [1], the pKi is 8.59.
